Measured values reported in patent US5574166A, “Crystalline form of 2-(2-hydroxy-3-α-cumyl-5-tert-octylphenyl)-2H-benzotriazole” (Ciba-Geigy Corporation, priority 1995, dated 1996).
Entries after “also recorded” stand apart in the source; their conditions may differ.

Assays:
[1] = Photostability of UV absorber in gelatine layer on polyester base (Example 21); assay type: physicochemical; conditions: for photostability (in words): 30-120 kJ/cm^2 exposure; for Dmax (maximum density in the range 330-380 nm): before exposure, gelatine layer
Procedure: The amount of UV absorber shown in the table below is dissolved in 2 ml of ethyl acetate. 1 ml of this solution is mixed with 9 ml of an aqueous gelatine solution [comprising 27.6 g/l of gelatine and 6.8 g/l of an 8% aqueous solution of 4,8-diisobutylnaphthalene-2-sulfonic acid (sodium salt) as wetting agent]. This mixture is emulsified for 3 minutes by means of ultrasound. 7.5 ml of this UV absorber emulsion are mixed with 4.5 ml of an aqueous curing agent solution (comprising 0.24% of 2-hydroxy-4,6-dichloro-s-triazine, potassium salt). 8 ml of this emulsion are poured onto a polyester base (13×18 cm). The casting is cured for 7 days at room temperature. A UV spectrometer is then used to determine the values for the maximum density in the range from 330-380 nm. The sample is then exposed in an Arias exposure unit with a total of 30, 60, 90 and 120 kJ/cm^2, the maximum density is remeasured, and the difference (-ΔD in %) between the corresponding values is calculated.

[2] = Handling properties and storage stability of the solid form; assay type: physicochemical; conditions: apparent density
[3] = Solubility of benzotriazole UV absorbers in organic solvents (percent solids of saturated filtrate, ASTM D 2369-81); conditions: for Solubility in organic solvents (in words): organic / coatings solvents
Procedure: The relative solubility of three different benzotriazole UV absorbers in a five typical organic solvents is measured by dissolving the benzotriazole UV absorber in 50-100 mL of five different solvents till the solutions become supersaturated. This is seen when the benzotriazole begins to settle to the bottom of the test flask. The supersaturated solutions are allowed to remain undisturbed overnight. Then, the top layer is decanted and filtered. […] The higher the percent solids found indicates a more soluble benzotriazole.

[4] = Light stabilization effectiveness (general statement); conditions: versus 2-[2-hydroxy-3,5-di(α-cumyl)phenyl]-2H-benzotriazole
[5] = Volatility of UV absorber; assay type: physicochemical; conditions: long-term coating uses
[6] = EXXATE ® 600 (hexyl acetate from Exxon)
[7] = PM acetate (1-methoxy-2-propyl acetate)
[8] = PM solvent (1-methoxy-2-propanol)

Compound | photostability (in words) [1] | ΔD in % ([1]; 30 KJ exposure (kJ/cm^2)) | ΔD in % ([1]; 60 KJ exposure (kJ/cm^2)) | ΔD in % ([1]; 90 KJ exposure (kJ/cm^2)) | ΔD in % ([1]; 120 KJ exposure (kJ/cm^2)) | Dmax (maximum density in the range 330-380 nm) [1] | Solubility [3, 6] | Solubility [3, 7] | Solubility ([3]; butyl acetate) | Solubility ([3]; methyl amyl ketone) | Solubility in organic solvents (in words) [3] | Solubility ([3]; xylene) | volatility [5] | further results
CCCCCCCCCCCCc1cc(C)cc(-n2nc3ccccc3n2)c1O [B, 2(2-hydroxy-3-dodecyl-5-methylphenyl)-2H-benzotriazole] | not as photostable as the UV absorbers D, E and F | 5% | 10% | 17% | 25% | 2.1 | – | – | – | – | – | – | – | –
CCC(C)c1cc(C(C)(C)C)cc(-n2nc3ccccc3n2)c1O (stereo not drawn) [A, 2(2-hydroxy-3-sec-butyl-5-tert-butylphenyl)-2H-benzotriazole] | not as photostable as the UV absorbers D, E and F | 4% | 8% | 16% | 25% | 2.0 | – | – | – | – | – | – | – | –
CC(C)(C)CC(C)(C)c1cc(-n2nc3ccccc3n2)c(O)c(C(C)(C)c2ccccc2)c1 [Example 2, 2-(2-Hydroxy-3-α-cumyl-5-tert-octylphenyl)-2H-benzotriazole] | – | – | – | – | – | – | – | – | – | – | – | – | – | flowability, meterability and storage stability ([2]; listed as Example 18): poor flowability, meterability and storage stability
CC(C)(C)CC(C)(C)c1cc(-n2nc3ccccc3n2)c(O)c(C(C)(C)c2ccccc2)c1 [Example 7, 2-(2-hydroxy-3-α-cumyl-5-tert-octylphenyl)-2H-benzotriazole] | – | – | – | – | – | – | 22 grams/100 solvent | 14 grams/100 solvent | 33 grams/100 solvent | 33 grams/100 solvent | soluble in environmentally friendly solvents | 76 grams/100 solvent | same low volatility | Solubility [3, 8]: 4 grams/100 solvent; flowability, meterability and storage stability ([2]; listed as compound of formula I): acceptable properties in respect to handling, apparent density, flowability, meterability and storage stability; light stabilization effectiveness [4]: superior light stabilization effectiveness
CCCCCCCCCCCCc1cc(-n2nc3ccccc3n2)c(O)c(C(C)(C)c2ccccc2)c1 [Example 10, 2-(2-Hydroxy-3-α-cumyl-5-dodecylphenyl)-2H-benzotriazole] | – | 2% | 4% | 5% | 8% | 1.9 | > 50 grams/100 solvent | > 50 grams/100 solvent | > 50 grams/100 solvent | > 50 grams/100 solvent | do not suffer from the solubility limitations of UV absorber D in non-HAPS solvents | > 50 grams/100 solvent | – | Solubility ([3]; acetone): > 50 grams/100 solvent
CC(C)(C)CC(C)(C)c1cc(-n2nc3ccccc3n2)c(O)c(C(C)(C)c2ccccc2)c1 [E, 2(2-hydroxy-3-cumyl-5-tert-octylphenyl)-2H-benzotriazole] | – | 3% | 4% | 5% | 7% | 2.0 | – | – | – | – | do not suffer from the solubility limitations of UV absorber D in non-HAPS solvents | – | – | –
CCC(C)(C)c1cc(-n2nc3ccccc3n2)c(O)c(C(C)(C)CC)c1 [UV absorber B] | not as photostable as the UV absorbers D, E and F | 4% | 7% | 12% | 24% | 2.1 | 24 grams/100 solvent | 10 grams/100 solvent | 27 grams/100 solvent | 24 grams/100 solvent | clearly quite soluble even in the solvents other then xylene | 54 grams/100 solvent | too volatile for long term coating uses | Solubility [3, 8]: 4 grams/100 solvent
CC(C)(C)CC(C)(C)c1cc(-n2nc3ccccc3n2)c(O)c(C(C)(C)c2ccccc2)c1 [Example 3, 2-(2-hydroxy-3-α-cumyl-5-tert-octylphenyl)-2H-benzotriazole] | – | – | – | – | – | – | – | – | – | – | essentially the same solubility parameters in the various solvents as seen in Example 13 for the new crystalline modification | – | – | Ease and rate of dissolution ([3]; non-HAPS solvents): dissolves much more easily and rapidly in the non-HAPS solvents; Solubility in organic solvents (in words) ([3]; listed as amorphous modification): excellent solubility characteristics
CCCCCCCCCc1cc(-n2nc3ccccc3n2)c(O)c(C(C)(C)c2ccccc2)c1 [Example 4, 2-(2-Hydroxy-3-α-cumyl-5-nonylphenyl)-2H-benzotriazole] | – | – | – | – | – | – | > 50 grams/100 solvent | > 50 grams/100 solvent | > 50 grams/100 solvent | > 50 grams/100 solvent | – | > 50 grams/100 solvent | – | Solubility ([3]; acetone): > 50 grams/100 solvent
CC(C)(c1ccccc1)c1cc(-n2nc3ccccc3n2)c(O)c(C(C)(C)c2ccccc2)c1 [UV absorber A, 2(2-hydroxy-3,5-di-cumylphenyl)-2H-benzotriazole] | no more stable than are UV absorbers E and F | 0% | 5% | – | – | 1.9 | 4 grams/100 solvent | 3 grams/100 solvent | 6 grams/100 solvent | 4 grams/100 solvent | – | 14 grams/100 solvent | excellent non-volatility | Solubility in organic solvents (in words) ([3]; listed as 2-(2-hydroxy-3,5-di-α-cumylphenyl)-2H-benzotriazole): relatively insoluble; also recorded: sparingly soluble; Solubility in organic solvents (in words) ([3]; listed as 2-[2-hydroxy-3,5-di(α-cumyl)phenyl]-2H-benzotriazole): sparingly soluble in environmentally more friendly solvents; solubility in toluene or xylene ([3]; toluene or xylene): about 14 % by weight; soluble at level in xylene ([3]; xylene): ~14 % (by weight)
